Assay results reported in patent publication US11427549B2, “Pyrimidinyloxy benzo-fused compounds as herbicides” (FMC Corporation, priority 2017, dated 2022).

Assays:
[1] = test system: ducksalad (Heteranthera limosa); assay: Test B flooded paddy test, ducksalad; details: Flood, 250 g ai/ha, applied to paddy water, 2-leaf stage, visually evaluated after 13 to 15 days
[2] = test system: ryegrass, Italian (Italian ryegrass, Lolium multiflorum); assay: Test A postemergence, ryegrass, Italian; type: in vivo; details: 0 to 100 scale (0 no effect, 100 complete control)
Text: (§1) Seeds of plant species selected from barnyardgrass (Echinochloa crus-galli), kochia (Kochia scoparia), ragweed (common ragweed, Ambrosia elatior), ryegrass, Italian (Italian ryegrass, Lolium multiflorum), foxtail, giant (giant foxtail, Setaria faberii), foxtail, green (green foxtail, Setaria viridis) and pigweed (Amaranthus retroflexus) were planted into a blend of loam soil and sand and treated preemergence with a directed soil spray using test chemicals formulated in a non-phytotoxic solvent mixture which included a surfactant.
(§2) At the same time, plants selected from these weed species and also wheat (Triticum aestivum), corn (Zea mays), blackgrass (Alopecurus myosuroides), and galium (catchweed bedstraw, Galium aparine) were planted in pots containing the same blend of loam soil and sand and treated with postemergence applications of test chemicals formulated in the same manner. Plants ranged in height from 2 to 10 cm and were in the one- to two-leaf stage for the postemergence treatment. Treated plants and untreated controls were maintained in a greenhouse for approximately 10 days, after which time all treated plants were compared to untreated controls and visually evaluated for injury. […] A dash (-) response means no test result.

[3] = test system: pigweed (Amaranthus retroflexus); assay: Test A preemergence, pigweed; type: in vivo; details: 0 to 100 scale (0 no effect, 100 complete control)
Text: as §1, §2

[4] = test system: pigweed (Amaranthus retroflexus); assay: Test A postemergence, pigweed; type: in vivo; details: 0 to 100 scale (0 no effect, 100 complete control)
Text: as §1, §2

kochia (Kochia scoparia) [5] = assay: Test A postemergence, kochia; type: in vivo; details: 0 to 100 scale (0 no effect, 100 complete control)
Text: as §1, §2

[6] = test system: ryegrass, Italian (Italian ryegrass, Lolium multiflorum); assay: Test A preemergence, ryegrass, Italian; type: in vivo; details: 0 to 100 scale (0 no effect, 100 complete control)
Text: as §1, §2

[7] = test system: wheat (Triticum aestivum); assay: Test A postemergence, wheat; type: in vivo; details: 0 to 100 scale (0 no effect, 100 complete control)
Text: as §1, §2

[8] = test system: barnyardgrass (Echinochloa crus-galli); assay: Test A postemergence, barnyardgrass; type: in vivo; details: 0 to 100 scale (0 no effect, 100 complete control)
Text: as §1, §2

[9] = test system: ragweed (common ragweed, Ambrosia elatior); assay: Test A preemergence, ragweed; type: in vivo; details: 0 to 100 scale (0 no effect, 100 complete control)
Text: as §1, §2

corn (Zea mays) = assay: Test A postemergence, corn; type: in vivo; details: 0 to 100 scale (0 no effect, 100 complete control)
Text: as §1, §2

[10] = test system: ragweed (common ragweed, Ambrosia elatior); assay: Test A postemergence, ragweed; type: in vivo; details: 0 to 100 scale (0 no effect, 100 complete control)
Text: as §1, §2

[11] = test system: barnyardgrass (Echinochloa crus-galli); assay: Test B flooded paddy test, barnyardgrass; details: Flood, 250 g ai/ha, applied to paddy water, 2-leaf stage, visually evaluated after 13 to 15 days
rice (Oryza sativa) = assay: Test B flooded paddy test, rice; details: Flood, 250 g ai/ha, applied to paddy water, 2-leaf stage, visually evaluated after 13 to 15 days
[12] = test system: barnyardgrass (Echinochloa crus-galli); assay: Test A preemergence, barnyardgrass; type: in vivo; details: 0 to 100 scale (0 no effect, 100 complete control)
Text: as §1, §2

[13] = test system: blackgrass (Alopecurus myosuroides); assay: Test A postemergence, blackgrass; type: in vivo; details: 0 to 100 scale (0 no effect, 100 complete control)
Text: as §1, §2

[14] = test system: galium (catchweed bedstraw, Galium aparine); assay: Test A postemergence, galium; type: in vivo; details: 0 to 100 scale (0 no effect, 100 complete control)
Text: as §1, §2

[15] = test system: foxtail, green (green foxtail, Setaria viridis); assay: Test A postemergence, foxtail, green; type: in vivo; details: 0 to 100 scale (0 no effect, 100 complete control)
Text: as §1, §2

[16] = test system: foxtail, green (green foxtail, Setaria viridis); assay: Test A preemergence, foxtail, green; type: in vivo; details: 0 to 100 scale (0 no effect, 100 complete control)
Text: as §1, §2

kochia (Kochia scoparia) [17] = assay: Test A preemergence, kochia; type: in vivo; details: 0 to 100 scale (0 no effect, 100 complete control)
Text: as §1, §2

[18] = test system: foxtail, giant (giant foxtail, Setaria faberii); assay: Test A preemergence, foxtail, giant; type: in vivo; details: 0 to 100 scale (0 no effect, 100 complete control)
Text: as §1, §2

[19] = test system: foxtail, giant (giant foxtail, Setaria faberii); assay: Test A postemergence, foxtail, giant; type: in vivo; details: 0 to 100 scale (0 no effect, 100 complete control)
Text: as §1, §2

## O=C1CC(CCCC(F)(F)F)c2c(Oc3ncc(Cl)cn3)cccc21 (stereo not shown) [Compound 6, 4-[(5-Chloropyrimidin-2-pyrimidinyl)oxy]-2,3-dihydro-3-(4,4,4-trifluorobutyl)-1H-inden-1-one]
[1]
  Plant response rating, Ducksalad (0 to 100 scale, 0 is no effect, 100 is complete control): 100
[2]; 31 g ai/ha
  Plant response rating, Ryegrass, Italian: 0
[2]; 125 g ai/ha
  Plant response rating, Ryegrass, Italian: 30
[3]; 31 g ai/ha
  Plant response rating, Pigweed: 0
[3]; 125 g ai/ha
  Plant response rating, Pigweed: 100
[4]; 31 g ai/ha
  Plant response rating, Pigweed: 90
[4]; 125 g ai/ha
  Plant response rating, Pigweed: 100
Kochia (Kochia scoparia) [5]; 31 g ai/ha
  Plant response rating, Kochia: 10
Kochia (Kochia scoparia) [5]; 125 g ai/ha
  Plant response rating, Kochia: 60
[6]; 31 g ai/ha
  Plant response rating, Ryegrass, Italian: 0
[6]; 125 g ai/ha
  Plant response rating, Ryegrass, Italian: 10
[7]; 31 g ai/ha
  Plant response rating, Wheat: 0
[7]; 125 g ai/ha
  Plant response rating, Wheat: 10
[8]; 31 g ai/ha
  Plant response rating, Barnyardgrass: 10
[8]; 125 g ai/ha
  Plant response rating, Barnyardgrass: 40
[9]; 31 g ai/ha
  Plant response rating, Ragweed: 0
[9]; 125 g ai/ha
  Plant response rating, Ragweed: 0
Corn (Zea mays); 31 g ai/ha
  Plant response rating, Corn: 0
Corn (Zea mays); 125 g ai/ha
  Plant response rating, Corn: 20
[10]; 31 g ai/ha
  Plant response rating, Ragweed: 0
[10]; 125 g ai/ha
  Plant response rating, Ragweed: 0
[11]
  Plant response rating, Barnyardgrass (0 to 100 scale, 0 is no effect, 100 is complete control): 40
Rice (Oryza sativa)
  Plant response rating, Rice (0 to 100 scale, 0 is no effect, 100 is complete control): 20
[12]; 31 g ai/ha
  Plant response rating, Barnyardgrass: 0
[12]; 125 g ai/ha
  Plant response rating, Barnyardgrass: 90
[13]; 31 g ai/ha
  Plant response rating, Blackgrass: 10
[13]; 125 g ai/ha
  Plant response rating, Blackgrass: 30
[14]; 31 g ai/ha
  Plant response rating, Galium: 60
[14]; 125 g ai/ha
  Plant response rating, Galium: 90
[15]; 31 g ai/ha
  Plant response rating, Foxtail, Green: 10
[15]; 125 g ai/ha
  Plant response rating, Foxtail, Green: 40
[16]; 31 g ai/ha
  Plant response rating, Foxtail, Green: 20
[16]; 125 g ai/ha
  Plant response rating, Foxtail, Green: 100
Kochia (Kochia scoparia) [17]; 31 g ai/ha
  Plant response rating, Kochia: 0
Kochia (Kochia scoparia) [17]; 125 g ai/ha
  Plant response rating, Kochia: 80

## O=C1OCC(CCCC(F)(F)F)c2c(Oc3ncc(Cl)cn3)cccc21 (stereo not shown) [Compound 16, 5-[(5-Chloro-2-pyrimidinyl)oxy]-3,4-dihydro-4-(4,4,4,-trifluorobutyl)-1H-2benzopyran-1-one]
[1]
  Plant response rating, Ducksalad (0 to 100 scale, 0 is no effect, 100 is complete control): 100
[2]; 31 g ai/ha
  Plant response rating, Ryegrass, Italian: 20
[2]; 125 g ai/ha
  Plant response rating, Ryegrass, Italian: 80
[3]; 31 g ai/ha
  Plant response rating, Pigweed: 100
[3]; 125 g ai/ha
  Plant response rating, Pigweed: 100
[18]; 31 g ai/ha
  Plant response rating, Foxtail, Giant: 80
[18]; 125 g ai/ha
  Plant response rating, Foxtail, Giant: 100
[4]; 31 g ai/ha
  Plant response rating, Pigweed: 80
[4]; 125 g ai/ha
  Plant response rating, Pigweed: 100
Kochia (Kochia scoparia) [5]; 31 g ai/ha
  Plant response rating, Kochia: 80
Kochia (Kochia scoparia) [5]; 125 g ai/ha
  Plant response rating, Kochia: 100
[6]; 31 g ai/ha
  Plant response rating, Ryegrass, Italian: 10
[6]; 125 g ai/ha
  Plant response rating, Ryegrass, Italian: 70
[19]; 31 g ai/ha
  Plant response rating, Foxtail, Giant: 30
[19]; 125 g ai/ha
  Plant response rating, Foxtail, Giant: 90
[7]; 31 g ai/ha
  Plant response rating, Wheat: 50
[7]; 125 g ai/ha
  Plant response rating, Wheat: 50
[8]; 31 g ai/ha
  Plant response rating, Barnyardgrass: 30
[8]; 125 g ai/ha
  Plant response rating, Barnyardgrass: 80
Corn (Zea mays); 31 g ai/ha
  Plant response rating, Corn: 0
Corn (Zea mays); 125 g ai/ha
  Plant response rating, Corn: 40
[10]; 31 g ai/ha
  Plant response rating, Ragweed: 10
[10]; 125 g ai/ha
  Plant response rating, Ragweed: 50
[11]
  Plant response rating, Barnyardgrass (0 to 100 scale, 0 is no effect, 100 is complete control): 75
Rice (Oryza sativa)
  Plant response rating, Rice (0 to 100 scale, 0 is no effect, 100 is complete control): 15
[12]; 31 g ai/ha
  Plant response rating, Barnyardgrass: 60
[12]; 125 g ai/ha
  Plant response rating, Barnyardgrass: 100
[13]; 31 g ai/ha
  Plant response rating, Blackgrass: 80
[13]; 125 g ai/ha
  Plant response rating, Blackgrass: 90
[14]; 31 g ai/ha
  Plant response rating, Galium: 90
[14]; 125 g ai/ha
  Plant response rating, Galium: 100
Kochia (Kochia scoparia) [17]; 31 g ai/ha
  Plant response rating, Kochia: 10
Kochia (Kochia scoparia) [17]; 125 g ai/ha
  Plant response rating, Kochia: 100

## 5-Chloro-2-[[1-oxido-3-(4,4,4-trifluorobutyl)-3H-2,1-benzoxathiol-4-yl]oxy]pyrimidine [Compound 15]
[1]
  Plant response rating, Ducksalad (0 to 100 scale, 0 is no effect, 100 is complete control): 0
[2]; 125 g ai/ha
  Plant response rating, Ryegrass, Italian: 20
[2]; 500 g ai/ha
  Plant response rating, Ryegrass, Italian: 90
[3]; 125 g ai/ha
  Plant response rating, Pigweed: 70
[3]; 500 g ai/ha
  Plant response rating, Pigweed: 100
[4]; 125 g ai/ha
  Plant response rating, Pigweed: 70
[4]; 500 g ai/ha
  Plant response rating, Pigweed: 90
Kochia (Kochia scoparia) [5]; 125 g ai/ha
  Plant response rating, Kochia: 80
Kochia (Kochia scoparia) [5]; 500 g ai/ha
  Plant response rating, Kochia: 90
[6]; 125 g ai/ha
  Plant response rating, Ryegrass, Italian: 0
[6]; 500 g ai/ha
  Plant response rating, Ryegrass, Italian: 30
[7]; 125 g ai/ha
  Plant response rating, Wheat: 10
[7]; 500 g ai/ha
  Plant response rating, Wheat: 30
[8]; 125 g ai/ha
  Plant response rating, Barnyardgrass: 30
[8]; 500 g ai/ha
  Plant response rating, Barnyardgrass: 60
[9]; 125 g ai/ha
  Plant response rating, Ragweed: 0
[9]; 500 g ai/ha
  Plant response rating, Ragweed: 20
Corn (Zea mays); 125 g ai/ha
  Plant response rating, Corn: 20
Corn (Zea mays); 500 g ai/ha
  Plant response rating, Corn: 40
[10]; 125 g ai/ha
  Plant response rating, Ragweed: 30
[10]; 500 g ai/ha
  Plant response rating, Ragweed: 60
[11]
  Plant response rating, Barnyardgrass (0 to 100 scale, 0 is no effect, 100 is complete control): 0
Rice (Oryza sativa)
  Plant response rating, Rice (0 to 100 scale, 0 is no effect, 100 is complete control): 0
[12]; 125 g ai/ha
  Plant response rating, Barnyardgrass: 30
[12]; 500 g ai/ha
  Plant response rating, Barnyardgrass: 70
[13]; 125 g ai/ha
  Plant response rating, Blackgrass: 30
[13]; 500 g ai/ha
  Plant response rating, Blackgrass: 90
[14]; 125 g ai/ha
  Plant response rating, Galium: 80
[14]; 500 g ai/ha
  Plant response rating, Galium: 80
[15]; 125 g ai/ha
  Plant response rating, Foxtail, Green: 20
[15]; 500 g ai/ha
  Plant response rating, Foxtail, Green: 80
[16]; 125 g ai/ha
  Plant response rating, Foxtail, Green: 50
[16]; 500 g ai/ha
  Plant response rating, Foxtail, Green: 100
Kochia (Kochia scoparia) [17]; 125 g ai/ha
  Plant response rating, Kochia: 20
Kochia (Kochia scoparia) [17]; 500 g ai/ha
  Plant response rating, Kochia: 80
